According to patent US8173428B2, “LNA oligonucleotides and the treatment of cancer” (Santaris Pharma A/S, priority 2004, dated 2012):
Like-named read-outs stand apart in the source and are kept apart here. Oligonucleotides are written 5' to 3', each unit as a sugar letter and its base; * is a phosphorothioate linkage, no mark a phosphodiester; rarer units and linkages stand in square brackets, end groups in braces. Plain capitals give the bases only. l = locked nucleic acid (LNA); [5mC] = 5-methylcytosine; d = 2'-deoxy (DNA)

Legend:
15PC3 cells = assay: MTS assay of proliferating viable cells; format: cell-based, human
Procedure: (§1) Culturing of cells: 15PC3 was cultured in DMEM (Sigma) containing 10% fetal bovine serum, Glutamax I and gentamicin at 37° C., 95% humidity and 5% CO2. The cervical carcinoma cell line HeLa were cultured in MEM (Sigma) containing 10% fetal bovine serum, Glutamax I and gentamicin at 37° C., 95% humidity and 5% CO2. When reaching 60-70% confluency, the cells were transfected using Lipofectamine 2000 (5 μg/ml).
Cells were seeded to a density of 10000 cells per well in clear 96 well plate (Scientific Orange no. 1472030100) in DMEM the day prior to transfection. The next day cells were washed once in prewarmed OptiMEM followed by addition of 72 μl OptiMEM containing 5 μg/ml Lipofectamine 2000 (Invitrogen). Cells were incubated for 7 min before adding 18 μl oligonucleotides diluted in OptiMEM. […] After 4 hours of treatment, cells were washed in OptiMEM and 100 μl serum containing DMEM was added. Following oligonucleotide treatment cells were allowed to recover for the period indicated, viable cells were measured by adding 20 μl of the tetrazolium compound [3-(4,5-[…])-5-(3-carboxymethoxyphenyl)-2-(4-sulfophenyl)-2H-tetrazolium, inner salt; MTS] and an electron coupling reagent (phenazine ethosulfate, PES; CellTiter 96® AQueous One Solution Cell Proliferation Assay, Promega). Viable cells were measured at 490 nm and 650 nm in a Powerwave (Biotek Instruments).
The inhibition of growth rate ΔOD (490-650 nm)/h was plotted against the oligonucleotide concentration relative to mock, which was set to 100%. The maximum inhibition of proliferation observed in the MTS assay was 70% (minimum 30%). (Table 5 and FIG. 5)

HeLa cells = assay: Annexin V-FITC/PI flow cytometry analysis; format: cell-based, human; details: 5 nM or 25 nM
Procedure: as §1
0.4×10^6 HeLa cells were seeded in T25 flasks one day prior to transfection. On the day of transfection, the cells were washed once in 37° C. OptiMEM followed by addition of 2.8 ml OptiMEM containing 5 μg/ml Lipofectamine-2000 (In vitrogen). Cells were incubated for 7 min before adding 700 μl oligonucleotides diluted in OptiMEM to a final concentration of 5 nM or 25 nM, Mock transfected cells served as control. After 4 hours of treatment cells were washed in OptiMEM and 3 ml culture medium was added. Following oligonucleotide treatment cells were allowed to recover for 48 hours before they were harvested by scraping and washed twice in PBS. 0.2×10^6 cells were incubated with 5 μl Annexin V-FITC and 10 μl propidium iodide (PI-10 mg/ml) and incubated for 15 min at room temperature in the dark. […] Moreover, TRAIL (Apo2L) induced HeLA cells (0.5 μg/ml) were used as positive control. (See FIG. 4)

complementary RNA = assay: Measurement of melting temperature (Tm) of the duplex; format: binding; details: 3 μM, 10 mM sodium phosphate/100 mM NaCl/0.1 nM EDTA, pH 7.0
Procedure: Measurement of melting temperature (Tm) of the compounds: A 3 μM solution of SEQ ID NO. 2 in 10 mM sodium phosphate/100 mM NaCl/[…], pH 7.0 was mixed with its complement DNA/RNA 3 μM in 10 mM sodium phosphate/100 mM NaCl/[…], pH 7.0 at 90° C. for a minute and allowed to cool to room temperature. The Tm of the duplex was then determined by increasing the temperature 1° C./min. from 25 to 95° C. The Tm of SEQ ID NO.

[1] = Stability in human plasma; format: in vitro ADME; details: 20 μM, 37° C., up to 96 hours
Procedure: Stability of 20 μM SEQ ID NO. 2 and SEQ ID NO. 24 in human and mouse plasma (Li-Heparine (Taconic, M&B)) at 37° C. at different time aliquots: 0, 1, 2, 4, 24, 48 and 96 hours. A commercially available ladder was also included (10 and 20 mer are visible on the PAGE). (see FIG. 1)

[2] = Oligonucleotide content in cynomolgus monkey tissues (4 weeks repeat dose study); format: in vivo, cynomolgus monkeys; details: i.v. twice weekly for four weeks, then 4 weeks untreated
Procedure: In an i.v. 4 weeks repeat dose toxicity study in cynomolgus monkeys SEQ ID NO. 2 was administered at doses of 0, 6, 15 and 60 mg/kg/occasion twice weekly for four weeks. In the groups of animals receiving 0, 15 or 60 mg/kg/occasion some animals were followed for a recovery period of 4 weeks without treatment.
Tissues including liver and kidney samples were snap frozen and stored at −70° C. for subsequent analysis.
Tissues (˜100 mg) is weighed off (tissue is kept on dry-ice before and after weighing). 500 μl extraction buffer containing proteinase K (1 mg/ml) is added. The tissue is homogenized mechanically and the homogenate is incubated over night at 37° C.
Reference samples are prepared by dissolving SEQ ID NO. 2 in extraction buffer at the relevant concentration range. Exactly 100 mg liver tissue from un-treated animals is weighed off (kept on dry-ice before and after weighing). Extraction buffer (with proteinase K, 1 mg/ml) containing the reference material is added to the tissue samples to a total volume of 0.5 ml. The tissue is mechanically homogenized and is incubated over night at 37° C. The detection signal of SEQ ID NO. 2 from these samples is used to prepare a standard curve covering the lowest and the highest concentrations found in the treated animals.
Tissue samples are transferred to 2 ml microtubes with screw caps. […]

## 5′-^MeCsTs^MeCsAsastscscsastsgsgs^MeCsAsGsc-3′ (l[5mC]*lT*l[5mC]*lA*dA*dT*dC*dC*dA*dT*dG*dG*l[5mC]*lA*lG*dC) [SEQ ID NO. 2]
15PC3 cells; 0.2, 1, 5, 25 and 100 nM, 13-72 hours after transfection, 15PC3 cells
  Proliferation (relative number of viable cells): dose dependent inhibition of proliferation
15PC3 cells; 48 hours (Table 7, FIG. 5), read-out: Proliferation IC50 (48 hours)
  IC50: 5 nM
15PC3 cells; 48 hours, transfected 15PC3 cells (Table 5), read-out: Inhibition of proliferation, MTS assay IC50 (48 hours)
  IC50: 4.9 nM
HeLa cells
  Induction of early and late apoptosis (Annexin V-FITC/PI staining): dose dependent induction of early and late apoptosis
Complementary RNA
  Tm (° C.) complementary RNA: 75.3 °C
[1]
  Stability in human plasma (degradation products): No degradation products
[2]
  Content in liver of recovery animals: detectable
